Measured values published in patent US20100249234A1, “METHODS OF REDUCING VIRULENCE IN BACTERIA” (UWM RESEARCH FOUNDATION, INC., priority 2007, published 2010).

Columns and labels:
Assay type in all cases: cell-based, Dickeya dadantii 3937 (Ech3937)
[1] = system: pPROBE-AT vector; assay: GFP expression control base level, pPROBE-AT vector, flow cytometry (FACS); conditions: MM + 0.1 mM compound, 12 h (Table 4)
Experimental: (§1) FACS analysis of promoter activity of dspE, hrpA, hrpL, hrpN, and hrpS was carried out as described (Peng et al., 2006). Briefly, the wild-type Ech3937 and the mutant strains carrying the promoter reporter plasmid were grown on LB broth at 28° C. overnight and transferred to appropriate media. For FACS analysis, samples were collected by centrifugation, washed with 1× phosphate buffer saline (PBS) at 13,000 rpm for 1 min, and re-suspended in 1×PBS to ca 10^6 CFU/ml prior to being run in a FACS Calibur flow cytometer (BD Biosciences, CA). Three replicates were performed for each treatment.
(§2) Since OCA and TCA induced the expression of hrpN, the effect of these two phenolic compounds on the expression of hrpA, hrpL, and hrpS was investigated further. […] GFP intensity was determined on gated populations of bacterial cells by flow cytometry and analyzed with the Cell Quest software (BD Biosciences, San Jose, Calif.). The lines labeled “1” stand for the GFP expression control base level of the Ech3937 containing pPROBE-AT vector; lines labeled “2” stand for the promoter activity of hrpS, hrpL, hrpA and hrpN in Ech3937 in MM; lines labeled “3” stand for the promoter activity of Ech3937 in MM supplemented with 0.1 mM OCA; lines labeled “4” stand for the promoter activity of hrpL mutant WPP96 in MM; lines labeled “5” stand for the promoter activity of hrpL mutant WPP96 in MM supplemented with 0.1 mM OCA. Values are representative of at least two experiments. […] Compared with MM alone, the average GFP fluorescence intensity of bacterial cells of Ech3937 (phrpA) was doubled when 0.1 mM of OCA and TCA were added to the medium (Table 4; FIG. 3). […] The mrp, whose protein product has an ATPase conserved domain (2e-06), was used as a reference gene in this study.

[2] = system: Ech3937; assay: Growth of Ech3937 in MM supplemented with compound; conditions: 0.05, 0.1 and 0.2 mM in MM (FIGS. 2A, 2B)
Excerpt: Phenolic compounds constitute an important class of organic substances produced by plants. The phenolic compound SA is a signaling molecule that plays a role in host defenses. OCA and TCA are the biosynthetic precursors of SA and are also reported to induce the expression of defense-related genes in plants. OCA, TCA, and SA were examined to elucidate their effects on the expression of T3SS genes. The expression of the T3SS gene hrpN was examined in MM and MM supplemented with OCA, TCA, and SA, at concentrations of 0.05, 0.1, and 0.2 mM, respectively. FIGS. 2A and 2B show the promoter activities of hrpN in Dickeya dadantii 3937 (Ech3937) grown in MM and MM supplemented with 0.05, 0.1, and 0.2 mM OCA, TCA, and SA at 12 h (FIG. 2A) and 24 h (FIG. 2B) post-inoculation. GFP intensity was determined on gated populations of bacterial cells by flow cytometry and analyzed with the Cell Quest software (BD Biosciences, San Jose, Calif.). The growth of Ech3937 in MM supplemented with different concentrations of OCA, TCA and SA was recorded. Compared with MM alone, the average GFP fluorescence intensity of bacterial cells of Ech3937 (phrpN) was increased approximately 4-fold when 0.05 mM of OCA and TCA were added to the medium (FIGS. 2A, 2B).
The expression of the T3SS gene hrpA was further examined in MM and MM supplemented with PCA at concentrations of 0.001, 0.005, 0.01, 0.05 and 0.1 mM respectively. FIGS. 16A and 16B show the promoter activities of hrpA in Dickeya dadantii 3937 (Ech3937) grown in minimum medium (MM) and MM supplemented with different amount of p-coumaric acid (PCA) at 12 h (FIG. 16A) and 24 h (FIG. 16B) post-inoculation. GFP intensity was determined on gated populations of bacterial cells by flow cytometry and analyzed with the Cell Quest software (BD Biosciences, San Jose, Calif.). The growth of Ech3937 in MM supplemented with different concentrations of PCA was recorded. Compared with MM alone, the average GFP fluorescence intensity of bacterial cells of Ech3937 (phrpA) was reduced more than 4-fold when 0.05 and 0.1 mM of PCA were added to the medium (FIGS. 16A, 16B).

[3] = system: mrp promoter; assay: mrp (reference gene) promoter activity, GFP reporter pmrp, flow cytometry (FACS); conditions: MM + 0.1 mM compound
Experimental: as §1, §2

[4] = system: hrpL promoter; assay: hrpL promoter activity, GFP reporter plasmid phrpL, flow cytometry (FACS); conditions: MM + 0.1 mM compound
Experimental: as §1, §2

[5] = system: rsmB mRNA; assay: qRT-PCR relative mRNA level of rsmB; conditions: Ech3937 in supplemented MM vs MM alone (normalized to 1)
Experimental: Bacterial strains were grown in MM. Total RNA from the bacterial cells was isolated by using the TRI reagent method (Sigma, Mo.) and treated with Turbo DNA-free DNase kits (Ambion, TX) as described (Peng et al., 2006). An iScript cDNA Synthesis Kit (Bio-Rad, CA) was used to synthesize cDNA from 0.5 μg of treated total RNA. The Real Master Mix (Eppendorf, Westbury, N.Y.) was used for qRT-PCR reaction to quantify the cDNA level of target genes in different samples. The rplU was used as the endogenous control for data analysis. qRT-PCR data were analyzed using Relative Expression Software Tool as described (Pfaffl, M. W., Horgan, G. W., and Dempfle, L. (2002) Relative expression software tool (REST) for group-wise comparison and statistical analysis of relative expression results in real-time PCR. Nucleic Acids Res 30:e36.).

[6] = system: hrpN promoter; assay: hrpN promoter activity, GFP reporter plasmid phrpN, flow cytometry (FACS)
[7] = system: hrpS promoter; assay: hrpS promoter activity, GFP reporter plasmid phrpS, flow cytometry (FACS); conditions: MM + 0.1 mM compound
Experimental: as §1, §2

[8] = system: hrpA promoter; assay: hrpA promoter activity, GFP reporter plasmid phrpA, flow cytometry (FACS)
Experimental: as §1
To identify potential compounds that repress activation of T3SS, analogs and isomers of TCA and intermediates of salicylic acid and phenypropanoid biosynthesis pathways in plants were further screened for their effect on Ech3937 hrpA expression by flow cytometry (Table 9). A green fluorescent protein (GFP) reporter plasmid phrpA (pProbe-AT derivative with PCR fragment containing hrpA promoter region) was constructed, resulting in a transcriptional fusion of hrpA promoter with GFP gene. Bacterial cells containing phrpA plasmid were grown in MM supplemented with 0.1 mM of each compound. GFP intensity, which is a measurement of hrpA promoter activity, was measured by flow cytometry.

[9] = hrpL mutant WPP96, 12 h (Table 4)
[10] = MM + 0.1 mM compound, 12 h (Table 4)
[11] = hrpL mutant WPP96, MM + 0.1 mM compound, 12 h (Table 4)

## O=C(O)/C=C/c1ccccc1 [TCA, t-cinnamic acid]
[1]
  GFP intensity (Mean Fluorescence Intensity) of Ech3937 (pPROBE-AT): 1.9 ± 0
[2]
  bacterial growth of Ech3937 in supplemented MM: No reduction of bacterial growth
[3]; 12 h
  mrp expression in Ech3937 (pmrp) compared with MM: slightly higher mrp expression
[3]; reference gene, 12 h (Table 4)
  GFP intensity (Mean Fluorescence Intensity) of Ech3937 (pmrp): 105 ± 0.3
[4]; Ech3937, 12 h
  promoter activity of hrpL compared with MM alone: slightly higher promoter activity
[4]; 12 h (Table 4)
  GFP intensity (Mean Fluorescence Intensity) of Ech3937 (phrpL): 19 ± 1
[4]; [9]
  GFP intensity (Mean Fluorescence Intensity) of WPP96 (phrpL): 331 ± 27
[5]
  rsmB mRNA relative expression ratio: 1.58
[6]; 0.05 mM compound added to MM, 12 h and 24 h (FIGS. 2A, 2B)
  increase of average GFP fluorescence intensity of Ech3937 (phrpN) compared with MM alone: approximately 4 fold
[6]; 0.1 mM compound in MM, 12 h (FIG. 5)
  induction of hrpN expression in Ech3937 and in hrpX (WPP67), hrpY (WPP92), hrpS (WPP90) mutants: induced the expression of hrpN in Ech3937, but not in hrpX, hrpY, and hrpS mutants
[6]; MM + 0.2 μM compound, 12 h
  GFP Intensity of Ech3937 (phrpN): 65.1 ± 6.8
[6]; MM + 0.2 μM compound, 24 h
  GFP Intensity of Ech3937 (phrpN): 163 ± 25
[6]; MM + 0.5 μM compound, 12 h
  GFP Intensity of Ech3937 (phrpN): 73.4 ± 4.2
[6]; MM + 0.5 μM compound, 24 h
  GFP Intensity of Ech3937 (phrpN): 158 ± 20
[6]; MM + 5 μM compound, 12 h
  GFP Intensity of Ech3937 (phrpN): 134 ± 5.6
[6]; MM + 5 μM compound, 24 h
  GFP Intensity of Ech3937 (phrpN): 266 ± 14
[6]; MM + 10 μM compound, 12 h
  GFP Intensity of Ech3937 (phrpN): 147 ± 18
[6]; MM + 10 μM compound, 24 h
  GFP Intensity of Ech3937 (phrpN): 284 ± 12
[6]; [10]
  GFP intensity (Mean Fluorescence Intensity) of Ech3937 (phrpN): 103 ± 1
[6]; [11]
  GFP intensity (Mean Fluorescence Intensity) of WPP96 (phrpN): 3.3 ± 0
[7]; 12 h
  GFP intensity of Ech3937 (phrpS) compared with MM alone: slightly lower GFP intensity
[7]; 12 h (Table 4)
  GFP intensity (Mean Fluorescence Intensity) of Ech3937 (phrpS): 54 ± 2
[7]; [9]
  GFP intensity (Mean Fluorescence Intensity) of WPP96 (phrpS): 360 ± 16
[8]; 0.1 mM compound, 12 h
  average GFP fluorescence intensity of Ech3937 (phrpA) compared with MM alone: doubled
[8]; MM + 0.1 mM compound, 6 h (Table 9)
  expression of hrpA, GFP intensity (Mean Fluorescence Intensity), Ech3937 carrying phrpA: 22.3 ± 2.1
[8]; [10]
  GFP intensity (Mean Fluorescence Intensity) of Ech3937 (phrpA): 78 ± 0
[8]; MM + 0.1 mM compound, 12 h (Table 9)
  expression of hrpA, GFP intensity (Mean Fluorescence Intensity), Ech3937 carrying phrpA: 133.9 ± 12.9
[8]; MM + 0.1 mM compound, 24 h (Table 9)
  expression of hrpA, GFP intensity (Mean Fluorescence Intensity), Ech3937 carrying phrpA: 203.7 ± 16.1
[8]; [11]
  GFP intensity (Mean Fluorescence Intensity) of WPP96 (phrpA): 6.2 ± 0.6
